# In ChEMBL document CHEMBL4411307, “N,N'-diaryl-bishydrazones in a biphenyl platform: Broad spectrum antifungal agents” (Eur J Med Chem, 2019):
# Calls of active or inactive are those of the source. The rule behind the calls is not given here.
# What was measured:
# Candida parapsilosis = test: Antifungal activity against Candida parapsilosis ATCC 22019 measured after 48 hrs by CLSI M27-A3 protocol based method; assay type: functional; conditions: Lodderomyces parapsilosis, ATCC 22019, 48 h
# [1] = Hemolytic activity in mouse RBC at […] after 1 hr relative to control; assay type: ADME, cell-based, Erythrocyte; conditions: red blood cells (erythrocytes), read-out: Activity; also: tested at 0.48 µg/mL
# BEAS-2B = test: Cytotoxicity against human BEAS2B cells after 24 hrs by resazurin based assay; assay type: cell-based
# [2] = Selectivity index, ratio of CC50 for human A549 cells to MIC for Aspergillus terreus ATCC MYA-3633; assay type: toxicity; conditions: read-out: Selectivity Index
# [3] = Selectivity index, ratio of compound concentration showing <20 to <25% hemolysis in mouse RBC to MIC for fluconazole/ITC-resistant Candida albicans ATCC 64124; assay type: toxicity; conditions: red blood cells (erythrocytes), read-out: Selectivity Index
# [4] = Selectivity index, ratio of CC50 for human A549 cells to MIC for fluconazole/ITC-resistant Candida albicans ATCC MYA-1237; assay type: toxicity; conditions: read-out: Selectivity Index
# Staphylococcus aureus = test: Antibacterial activity against methicillin-resistant Staphylococcus aureus; assay type: functional, organism-based
# Candida albicans [5] = test: Antifungal activity against fluconazole/ITC-resistant Candida albicans ATCC 10231 measured after 48 hrs by CLSI M27-A3 protocol based method; assay type: functional; conditions: ATCC 10231, 48 h
# Nakaseomyces glabratus = test: Antifungal activity against Candida glabrata ATCC 2001 measured after 48 hrs by CLSI M27-A3 protocol based method; assay type: functional; conditions: CBS 138, 48 h
# [6] = Selectivity index, ratio of CC50 for human A549 cells to MIC for Candida krusei ATCC 6258; assay type: toxicity; conditions: read-out: Selectivity Index
# Enterococcus = test: Antibacterial activity against vancomycin-resistant Enterococcus; assay type: functional, organism-based
# [7] = Selectivity index, ratio of CC50 for human A549 cells to MIC for fluconazole/ITC-resistant Candida albicans ATCC 64124; assay type: toxicity; conditions: read-out: Selectivity Index
# [8] = Selectivity index, ratio of CC50 for human A549 cells to MIC for Candida parapsilosis ATCC 22019; assay type: toxicity; conditions: read-out: Selectivity Index
# [9] = Selectivity index, ratio of compound concentration showing <20 to <25% hemolysis in mouse RBC to MIC for fluconazole/ITC-resistant Candida albicans ATCC MYA-1237; assay type: toxicity; conditions: red blood cells (erythrocytes), read-out: Selectivity Index
# [10] = Selectivity index, ratio of CC50 for human A549 cells to MIC for fluconazole/ITC-susceptible Candida albicans ATCC MYA-2310; assay type: toxicity; conditions: read-out: Selectivity Index
# Candida albicans [11] = test: Antifungal activity against fluconazole/ITC-susceptible Candida albicans ATCC MYA-2876 measured after 48 hrs by CLSI M27-A3 protocol based method; assay type: functional; conditions: ATCC MYA-2876, 48 h
# [12] = Hemolytic activity in mouse RBC at 1.95 ug/ml after 1 hr relative to control; assay type: ADME, cell-based, Erythrocyte; conditions: red blood cells (erythrocytes), read-out: Activity
# [13] = Selectivity index, ratio of CC50 for human A549 cells to MIC for Aspergillus nidulans ATCC 38163; assay type: toxicity; conditions: read-out: Selectivity Index
# [14] = Selectivity index, ratio of compound concentration showing <20 to <25% hemolysis in mouse RBC to MIC for fluconazole/ITC-susceptible Candida albicans ATCC MYA-2876; assay type: toxicity; conditions: red blood cells (erythrocytes), read-out: Selectivity Index
# Candida albicans [15] = test: Antifungal activity against fluconazole/ITC-susceptible Candida albicans ATCC MYA-2310 measured after 48 hrs by CLSI M27-A3 protocol based method; assay type: functional; conditions: ATCC MYA-2310, 48 h
# [16] = Hemolytic activity in mouse RBC at […] ug/ml after 1 hr relative to control; assay type: ADME, cell-based, Erythrocyte; conditions: red blood cells (erythrocytes), read-out: Activity
# Candida albicans [17] = test: Antifungal activity against fluconazole/ITC-resistant Candida albicans ATCC 90819 measured after 48 hrs by CLSI M27-A3 protocol based method; assay type: functional; conditions: ATCC 90819, 48 h
# [18] = Selectivity index, ratio of CC50 for human A549 cells to MIC for fluconazole/ITC-resistant Candida albicans ATCC 10231; assay type: toxicity; conditions: read-out: Selectivity Index
# [19] = Selectivity index, ratio of compound concentration showing <20 to <25% hemolysis in mouse RBC to MIC for fluconazole/ITC-resistant Candida albicans ATCC MYA-1003; assay type: toxicity; conditions: red blood cells (erythrocytes), read-out: Selectivity Index
# Candida albicans [20] = test: Antifungal activity against fluconazole/ITC-resistant Candida albicans ATCC MYA-1003 measured after 48 hrs by CLSI M27-A3 protocol based method; assay type: functional; conditions: ATCC MYA-1003, 48 h
# [21] = Hemolytic activity in mouse RBC at 3.9 ug/ml after 1 hr relative to control; assay type: ADME, cell-based, Erythrocyte; conditions: red blood cells (erythrocytes), read-out: Activity
# [22] = Selectivity index, ratio of compound concentration showing <20 to <25% hemolysis in mouse RBC to MIC for Aspergillus nidulans ATCC 38163; assay type: toxicity; conditions: red blood cells (erythrocytes), read-out: Selectivity Index
# [23] = Hemolytic activity in mouse RBC at 62.5 ug/ml after 1 hr relative to control; assay type: ADME, cell-based, Erythrocyte; conditions: red blood cells (erythrocytes), read-out: Activity
# [24] = Selectivity index, ratio of compound concentration showing <20 to <25% hemolysis in mouse RBC to MIC for Candida krusei ATCC 6258; assay type: toxicity; conditions: red blood cells (erythrocytes), read-out: Selectivity Index
# Aspergillus flavus = test: Antifungal activity against Aspergillus flavus ATCC MYA-3631 measured after 48 hrs by CLSI M38-A2 protocol based method; assay type: functional; conditions: ATCC MYA-3631, 48 h
# Aspergillus terreus = test: Antifungal activity against Aspergillus terreus ATCC MYA-3633 measured after 48 hrs by CLSI M38-A2 protocol based method; assay type: functional; conditions: ATCC MYA-3633, 48 h
# Pichia kudriavzevii = test: Antifungal activity against Candida krusei ATCC 6258 measured after 48 hrs by CLSI M27-A3 protocol based method; assay type: functional; conditions: ATCC 6258, 48 h
# Candida albicans [25] = test: Antifungal activity against fluconazole/ITC-resistant Candida albicans ATCC 64124 measured after 48 hrs by CLSI M27-A3 protocol based method; assay type: functional; conditions: ATCC 64124, 48 h
# [26] = Selectivity index, ratio of CC50 for human A549 cells to MIC for fluconazole/ITC-resistant Candida albicans ATCC MYA-1003; assay type: toxicity; conditions: read-out: Selectivity Index
# [27] = Selectivity index, ratio of compound concentration showing <20 to <25% hemolysis in mouse RBC to MIC for fluconazole/ITC-resistant Candida albicans ATCC 90819; assay type: toxicity; conditions: red blood cells (erythrocytes), read-out: Selectivity Index
# [28] = Hemolytic activity in mouse RBC at 7.8 ug/ml after 1 hr relative to control; assay type: ADME, cell-based, Erythrocyte; conditions: red blood cells (erythrocytes), read-out: Activity
# [29] = Selectivity index, ratio of compound concentration showing <20 to <25% hemolysis in mouse RBC to MIC for Aspergillus terreus ATCC MYA-3633; assay type: toxicity; conditions: red blood cells (erythrocytes), read-out: Selectivity Index
# [30] = Hemolytic activity in mouse RBC at 31.3 ug/ml after 1 hr relative to control; assay type: ADME, cell-based, Erythrocyte; conditions: red blood cells (erythrocytes), read-out: Activity
# [31] = Selectivity index, ratio of compound concentration showing <20 to <25% hemolysis in mouse RBC to MIC for fluconazole/ITC-resistant Candida albicans ATCC 10231; assay type: toxicity; conditions: red blood cells (erythrocytes), read-out: Selectivity Index
# [32] = Selectivity index, ratio of CC50 for human A549 cells to MIC for Candida glabrata ATCC 2001; assay type: toxicity; conditions: read-out: Selectivity Index
# Candida albicans [33] = test: Antifungal activity against fluconazole/ITC-resistant Candida albicans ATCC MYA-1237 measured after 48 hrs by CLSI M27-A3 protocol based method; assay type: functional; conditions: ATCC MYA-1237, 48 h
# Listeria monocytogenes = test: Antibacterial activity against Listeria monocytogenes; assay type: functional, organism-based
# [34] = Selectivity index, ratio of CC50 for human A549 cells to MIC for fluconazole/ITC-resistant Candida albicans ATCC 90819; assay type: toxicity; conditions: read-out: Selectivity Index
# [35] = Selectivity index, ratio of CC50 for human A549 cells to MIC for fluconazole/ITC-susceptible Candida albicans ATCC MYA-2876; assay type: toxicity; conditions: read-out: Selectivity Index
# [36] = Selectivity index, ratio of compound concentration showing <20 to <25% hemolysis in mouse RBC to MIC for fluconazole/ITC-susceptible Candida albicans ATCC MYA-2310; assay type: toxicity; conditions: red blood cells (erythrocytes), read-out: Selectivity Index
# [37] = Selectivity index, ratio of compound concentration showing <20 to <25% hemolysis in mouse RBC to MIC for Candida parapsilosis ATCC 22019; assay type: toxicity; conditions: red blood cells (erythrocytes), read-out: Selectivity Index
# [38] = Selectivity index, ratio of CC50 for human A549 cells to MIC for Aspergillus flavus ATCC MYA-3631; assay type: toxicity; conditions: read-out: Selectivity Index
# [39] = Selectivity index, ratio of compound concentration showing <20 to <25% hemolysis in mouse RBC to MIC for Aspergillus flavus ATCC MYA-3631; assay type: toxicity; conditions: red blood cells (erythrocytes), read-out: Selectivity Index
# Aspergillus nidulans = test: Antifungal activity against Aspergillus nidulans ATCC 38163 measured after 48 hrs by CLSI M38-A2 protocol based method; assay type: functional; conditions: ATCC 38163, 48 h
# A549 = test: Cytotoxicity against human A549 cells after 24 hrs by resazurin based assay; assay type: cell-based; conditions: a549, 24 h
# [40] = Selectivity index, ratio of compound concentration showing <20 to <25% hemolysis in mouse RBC to MIC for Candida glabrata ATCC 2001; assay type: toxicity; conditions: red blood cells (erythrocytes), read-out: Selectivity Index
compound,measurement,setting,value
C(=N\Nc1ccccc1)/c1ccc(-c2ccc(/C=N/Nc3ccccc3)cc2)cc1,MIC,Candida parapsilosis,> 31.3 µg/mL
same,"hemolysis at 1 h, […]",[1],2%
same,CC50,BEAS-2B,11 µg/mL
same,selectivity ratio,[2],1.1
same,selectivity ratio,[3],1 to 32
same,selectivity ratio,[4],0.6
same,Activity,Staphylococcus aureus,inactive
same,MIC,Candida albicans [5],7.8 µg/mL
same,MIC,Nakaseomyces glabratus,> 31.3 µg/mL
same,selectivity ratio,[6],0.6
same,Activity,Enterococcus,inactive
same,selectivity ratio,[7],0.6
same,selectivity ratio,[8],0.6
same,selectivity ratio,[9],1 to 32
same,selectivity ratio,[10],0.6
same,MIC,Candida albicans [11],> 31.3 µg/mL
same,"hemolysis at 1 h, 1.95 ug/ml",[12],3.7%
same,selectivity ratio,[13],9.1
same,selectivity ratio,[14],1 to 32
same,MIC,Candida albicans [15],> 31.3 µg/mL
same,"hemolysis at 1 h, 15.6 ug/ml",[16]; at 15.6 µg/mL,14.1%
same,"hemolysis at 1 h, 0.975 ug/ml",[16],0.1%
same,MIC,Candida albicans [17],31.3 µg/mL
same,selectivity ratio,[18],2.3
same,selectivity ratio,[19],1 to 32
same,MIC,Candida albicans [20],> 31.3 µg/mL
same,"hemolysis at 1 h, 3.9 ug/ml",[21],3.4%
same,selectivity ratio,[22],1 to 32
same,"hemolysis at 1 h, 62.5 ug/ml",[23],17.2%
same,selectivity ratio,[24],1 to 32
same,MIC,Aspergillus flavus,3.9 µg/mL
same,MIC,Aspergillus terreus,15.6 µg/mL
same,MIC,Pichia kudriavzevii,> 31.3 µg/mL
same,MIC,Candida albicans [25],> 31.3 µg/mL
same,selectivity ratio,[26],0.6
same,selectivity ratio,[27],1 to 32
same,"hemolysis at 1 h, 7.8 ug/ml",[28],2.9%
same,selectivity ratio,[29],1 to 32
same,"hemolysis at 1 h, 31.3 ug/ml",[30],10.8%
same,selectivity ratio,[31],1 to 32
same,selectivity ratio,[32],0.6
same,MIC,Candida albicans [33],> 31.3 µg/mL
same,Activity,Listeria monocytogenes,inactive
same,selectivity ratio,[34],0.6
same,selectivity ratio,[35],0.6
same,selectivity ratio,[36],1 to 32
same,selectivity ratio,[37],1 to 32
same,selectivity ratio,[38],4.5
same,selectivity ratio,[39],1 to 32
same,MIC,Aspergillus nidulans,1.95 µg/mL
same,CC50,A549,17.7 µg/mL
same,selectivity ratio,[40],1 to 32
